Legend:
[1] = test system: Streptozotocin induced diabetic rats; experiment: Antidiabetic activity of orally administered insulin loaded delivery systems; type: in vivo, rat
Experimental: The pharmacological availability was assessed by the above results.
Various insulin loaded drug delivery systems prepared were tested for antidiabetic activity in Streptozotocin induced diabetic rats and the results are briefed in summary section. These insulin drug delivery systems are orally administered to diabetic rats (n=number of animals). At various time intervals after feeding the rats were bled and their blood glucose levels determined.

intestinal enzymes = settings: FIG. 3; same experimental conditions for free and entrapped insulin
IF = IF (Homo sapiens, UniProt P27352); settings: among b, d and e monocarboxylate isomers; cited from earlier work
Sequence of IF (P27352 19-417): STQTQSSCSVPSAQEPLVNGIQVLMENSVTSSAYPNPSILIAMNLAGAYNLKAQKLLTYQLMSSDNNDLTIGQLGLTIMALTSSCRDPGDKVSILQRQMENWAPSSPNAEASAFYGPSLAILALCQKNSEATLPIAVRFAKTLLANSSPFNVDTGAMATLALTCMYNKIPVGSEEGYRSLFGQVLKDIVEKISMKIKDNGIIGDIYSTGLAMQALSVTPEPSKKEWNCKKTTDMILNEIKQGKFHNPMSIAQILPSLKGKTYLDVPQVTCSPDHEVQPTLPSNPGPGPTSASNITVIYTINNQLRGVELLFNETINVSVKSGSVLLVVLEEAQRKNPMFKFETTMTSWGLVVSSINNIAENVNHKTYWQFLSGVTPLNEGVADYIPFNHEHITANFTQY

VB12 transport system = settings: oral uptake capacity; cited from earlier work

With insulin the “activity at 3rd, 4th, 5th and 6th hours” value [1] was “no activity” and the “Degradation of insulin by digestive enzymes” value (intestinal enzymes) was “completely degraded”.

For “‘e’ monocarboxylate of VB12 [Conjugate 1b]”, the “affinity for IF” value (IF) is listed as “highest affinity”.

In the case of Vitamin B12 [VB12], the “uptake of VB12” value (VB12 transport system) is given as 1 nmol/dose.
